Patent publication US5260425A, “Anthracycline derivatives having cytostatic activity” (priority 1988, dated 1993)
≈ marks a conversion by molar mass, not a printed value. Read-outs that look alike come from different tables or passages of the source.

Key:
[1] = test system: L1210 mouse leukemia cells; assay: Formation of colonies of L1210 leukemia cells in soft agar (cytotoxicity in vitro); format: cell-based; settings: Mus musculus
Experimental: The cytostatic activity of the compounds according to the invention has been tested using L1210 mouse leukemia cells. Employed for this purpose was the formation of colonies of L1210 leukemia cells in agar plates. This method is used to detect the effect of the test substances on the growth behavior of the cells over 1 hour or over several generations. In this connection, with a cell cycle time of 10-12 hours about 14 consecutive generations are observed in the 7 days the test lasts. In this test, the substances having cytostatic activity according to the invention bring about a reduction in the number of colonies to be observed by comparison with an untreated control sample.
Procedure for determining the formation of colonies of L1210 leukemia cells in soft agar
500 leukemia cells per plate were incubated with various concentrations of the test substance at 37° C. for 1 hour. The cells were then washed twice with McCoy5A medium and finally, after addition of 0.3% agar, poured into Petri dishes. Controls were incubated only with fresh medium. In place of the incubation for one hour, in some cases various concentrations and test substances were mixed with the upper agar layer in order in this way to achieve continuous exposure of the cells throughout the incubation time. After the agar had solidified, the plates were incubated in an incubator at 37° C. for 7 days (5% by volume CO2, 95% relative humidity). The number of colonies which had been produced with a diameter of more than 60 μm was then counted. The results have been reported as the number of colonies in treated agar plates as a percentage of the untreated control. The IC50 was determined as a measure of the activity of the substance from the dose-effect plot obtained in this way. The results for the compounds described herein, by comparison with adriamycin, are compiled in Table 1.

[2] = test system: L1210 leukemia; assay: In vivo activity on L1210 leukemia of the mouse (antitumor activity T/C); settings: for response vs control in vivo at 2.8 mg/kg: dose 2.80 mg/kg
Experimental: Ascites fluid is removed from DBA2 mice (female, 18-20 g) under sterile conditions 7 days after inoculation of tumor cells. The ascites is washed three times with PBS (phosphate-buffered saline), counted and adjusted to a cell count of 10^6 in 0.2 ml of PBS.
10^6 cells, suspended in 0.2 ml of PBS, are then injected intraperitoneally into DBF1 mice (female, 18-20 g). 6 animals per group are used for each substance concentration and as controls.
a) The animals are weighed on days 1 and 5 after injection of the test substance. A weight loss of more than 20% on day 5 is regarded as an indicator of a toxic effect of the substance.
b) At the end of the experiment (death of all animals or surviving animals on day 60) the mean survival time of the animals in the particular groups is determined as long as at least 65% of the animals were still alive on day 5 of the experiment. The mean survival time is determined only for animals which die during the course of the experiment. Long-term survivors (LTS) are not included in this calculation and are reported separately.
The antitumor activity (T/C) for the particular substance concentration is determined from the mean survival time (MSTT) in the treated groups and in the control groups (MSTC) as a percentage of the untreated controls in accordance with the following formula: [formula]
The T/C values and the treatment regimen employed in each case are compiled in Table 3, together with the indicative toxicity. T/C values greater than 125% are regarded as an indicator of a significant antitumor activity of the test substance.

[3] = test system: sensitive and resistant L1210 leukemia cells; assay: Proliferation test (MTT reduction), cross-resistance to doxorubicin/adriamycin in vitro; format: cell-based, mouse; settings: for Cross-resistance to doxorubicin (in words): L1210, MTT, in vitro; for Degree of resistance of the cell / Cross-resistance to adriamycin (degree of cross-resistance): MTT, 3d; for Degree of resistance of the cell: IC50 resistant subline related to IC50 sensitive subline; for Cross-resistance to adriamycin (degree of cross-resistance): adriamycin = 100.0
Experimental: L1210, A 549 or HT 29 in the exponential phase of growth are incubated in a cell density of 5×10^3 cells/ml in RPMI 1640 in a 96-well microtiter plate with various concentrations of the test substance at 37° C., 5% CO2 and 95% relative humidity for 72 h. Control experiments receive merely growth medium in place of the test substance. Quadruplicate determinations are set up for each test substance and for the control. After incubation for 65 h, 50 μl of an MTT solution (2.5 mg/ml; MTT=3-(4,5-dimethylthiazol-2-yl)-2,5-diphenyltetrazoliumbromide) in phosphate-buffered saline) are added. MTT is reduced to a dark red insoluble formazan dyestuff in the presence of live cells. This reaction is complete after 7 h (L1210 cells) or after 24 h (A 549, HT 29 cells), and the supernatant medium is carefully removed by aspiration. The insoluble dyestuff is dissolved by addition of 100 μl of DMSO (dimethyl sulfoxide) and the extinction of the resulting solution at a wavelength of 492 nm is then measured for each well in a multiscan 340 CC photometer from Flow.
The ratio of the extinctions for treated and untreated cells provides a dose-effect plot from which the concentration which just kills 50% of the cells (IC50) can be read off. The coefficient of variation for repeat investigations is less than 15%.
The cross-resistance between the particular test compound and doxorubicin as standard compound is determined with the aid of the MTT test (see above for method) on sensitive and resistant L1210 leukemia cells.
The resistant cell line was established by incubation of a sensitive subline with the reference compound in concentrations which increased stepwise.
The IC50 of the test compound on the resistant subline related to the IC50 of the sensitive subline provides both the degree of resistance for the test Compound (DR(T)) and that for the reference compound (DR(R)) in accordance with the formula [formula]
In addition, the degree of cross-resistance (DCR) for the test compound is calculated in accordance with the formula [formula]
In the case where the loss of effect of the test compound on the resistant line in relation to the sensitive line is greater than that of the reference compound it is possible for the degree of cross-resistance to be above 100%.

[4] = Determination of the indicative toxicity; settings: mouse, in vivo, ip; 3xip,q3d (three intraperitoneal administrations, 3 days interval); survival day 14
Experimental: To determine the indicative toxicity, NMRI mice receive an intraperitoneal injection of various doses of the test substance dissolved in 0.5 ml of 5% strength glucose solution on day 0. Control groups receive merely 0.5 ml of 5% strength glucose solution. 5 mice are used for each concentration of the test substance. The number of mice surviving on day 14 is determined, and from this the LD5, LD50 and LD95 are determined by the Litchfield-Wilcoxon method. The toxicity (LD50 (mg/kg)) of the compounds described here is summarized in Table 3 by comparison with adriamycin.

[5] = Determination of the indicative toxicity; settings: mouse, in vivo; 3xiv,q3d (three intravenous administrations, 3 days interval); survival day 14
[6] = L1210, 168 h, read-out: IC50, continuous incubation, continuous incubation, 7 days, L1210 colonies in agar
[7] = L1210, read-out: IC50, 1 h incubation, 1 h incubation, then 7 days, L1210 colonies in agar
[8] = Mus musculus, L1210, iv, read-out: T/C, L1210-leukemia in vivo
[9] = 168 h, continuous incubation, 7 days, L1210 colonies in agar, read-out: IC50, continuous incubation
[10] = 1 h incubation, then 7 days, L1210 colonies in agar, read-out: IC50, 1 h incubation

Compound C=CCN(C)[C@H]1C[C@H](O[C@H]2C[C@](O)(CC)[C@H](O)c3c(O)c4c(c(O)c32)C(=O)c2c(O)cccc2C4=O)O[C@@H](C)[C@H]1O [Compound 1, 7-O-(3'-N-Allyl-3'-N-methyl-alpha-L-daunosaminyl)-β-rhodomycinone] has an IC50 [1, 6] of 0.01 µg/mL (≈ 0.0176 µM), an IC50 [1, 7] of 0.08 µg/mL (≈ 0.14 µM) and a response vs control in vivo at 1.19 mg/kg ([2]; Mus musculus, L1210, ip, read-out: T/C, L1210-leukemia in vivo) of 200%. The response vs control in vivo at 1 mg/kg [2, 8] was 146%, the “Cross-resistance to doxorubicin (in words)” value [3] was “not cross-resistant to doxorubicin” and the “Degree of resistance of the cell” value [3] was 10.0. The “Cross-resistance to adriamycin (degree of cross-resistance)” value (“Cross-resistance to adriamycin” below) [3] was 19.0% and the LD50 at 336 h [4] was 1 to 5 mg/kg.

Work on CC[C@@]1(O)C[C@H](O[C@H]2C[C@H](N(C)CC3CO3)[C@H](O)[C@H](C)O2)c2c(O)c3c(c(O)c2[C@H]1O)C(=O)c1c(O)ccc(O)c1C3=O (stereo partly drawn) [Compound 14m, 7-O-(3'-N-Glycidyl-3'-N-methyl-alpha-L-daunosaminyl)-β-isorhodomycinone] yielded an LD50 at 336 h [5] of 0.3 to 0.75 mg/kg, an IC50 [1, 6] of 0.005 µg/mL (≈ 0.00831 µM) and an IC50 [1, 7] of 0.0024 µg/mL (≈ 0.00399 µM). For the same compound, the response vs control in vivo at 0.13 mg/kg [2, 8] was 104%.

Work on CC[C@@]1(O)C[C@H](O[C@H]2C[C@H](N(C)Cc3ccsc3)[C@H](O)[C@H](C)O2)c2c(O)c3c(c(O)c2[C@H]1O)C(=O)c1cccc(O)c1C3=O [Compound 12, 7-O-(3'-N-Methyl-3'-N-(3-thenyl)-alpha-L-daunosaminyl)-β-rhodomycinone] yielded an LD50 at 336 h [5] of 2 to 5 mg/kg, an IC50 [1, 6] of 0.032 µg/mL (≈ 0.0511 µM) and an IC50 [1, 7] of 0.17 µg/mL (≈ 0.272 µM).

In the case of COc1cccc2c1C(=O)c1c(O)c3c(c(O)c1C2=O)C[C@@](O)(C(=O)CO)C[C@@H]3O[C@H]1C[C@H](N)[C@H](O)[C@H](C)O1 [Adriamycin, reference compound], the IC50 [1, 9] was 0.02 µg/mL (≈ 0.0368 µM), the IC50 [1, 10] was 0.04 µg/mL (≈ 0.0736 µM) and the “Animals recovered (longterm survivors)” value ([2]; 3xip,q3d, L1210-leukemia in vivo) was “Two of 6”. For the same compound, the “Degree of resistance of the cell” value [3] was 60-80, the “Cross-resistance to adriamycin” value [3] was 100.0% and the LD50 at 336 h [4] was 2.7 mg/kg.

CC[C@@]1(O)C[C@H](O[C@H]2C[C@H](N(C)Cc3ccco3)[C@H](O)[C@H](C)O2)c2c(O)c3c(c(O)c2[C@H]1O)C(=O)c1cccc(O)c1C3=O [Compound 6, 7-O-(3'-N-(2-Furfuryl)-3'-N-methyl-alpha-L-daunosaminyl)-β-rhodomycinone] gave an IC50 [1, 9] of 0.03 µg/mL (≈ 0.0492 µM), an IC50 [1, 10] of 0.038 µg/mL (≈ 0.0623 µM) and a response vs control in vivo at 2.8 mg/kg ([2]; Mus musculus, L1210, ip, 3xip,q3d, % of the control) of 141%. For the same compound, the response vs control in vivo at 2.8 mg/kg ([2]; Mus musculus, L1210, iv, 3xiv,q3d, % of the control) was 129%, the “Cross-resistance to doxorubicin (in words)” value [3] was “not cross-resistant to doxorubicin” and the “Degree of resistance of the cell” value [3] was 2.0. The “Cross-resistance to adriamycin” value [3] was 2.0% and the LD50 at 336 h [4] was 1 to 5 mg/kg.

C#CCN(C)[C@H]1C[C@H](O[C@H]2C[C@](O)(CC)[C@H](O)c3c(O)c4c(c(O)c32)C(=O)c2c(O)cccc2C4=O)O[C@@H](C)[C@H]1O [Compound 2, 7-O-(3'-N-methyl-3'-N-proparayl-alpha-L-daunosaminyl)-β-rhodomycinone] gave an LD50 at 336 h [5] of 2 to 5 mg/kg, an IC50 [1, 9] of 0.08 µg/mL (≈ 0.141 µM) and an IC50 [1, 10] of 0.3 µg/mL (≈ 0.529 µM). It also gave a response vs control in vivo at 1.2 mg/kg ([2]; Mus musculus, L1210, iv, 3xiv,q3d, dose 1.20 mg/kg, % of the control) of 144%.
